Measured values reported in patent publication US7605272B2, “IGF-1R inhibitor” (Kyowa Hakko Kirin Co., Ltd., priority 2005, dated 2009).

What was measured:
KMS-11 = test: Cytostatic activity on human multiple myeloma cell line KMS-11 (WST-1); type: cell-based; settings: 10 μmol/L, 72 hours; for inhibition at 10 µM: Homo sapiens, KMS-11, 72 h, read-out: cytostatic rate (%) KMS-11 (10 μmol/L)
Method: (§1) The cytostatic rates of a test compound on human multiple myeloma cell lines NCI-H929 and KMS-11, were determined in the following manner.
(§2) For culturing NCI-H929, Roswell Park Memorial Institute's Medium (RPMI) 1640 (Gibco, Catalog No. 11875-093) containing 15% fetal bovine serum (Gibco, Catalog No. 10099-141), 1 mmol/L sodium pyruvate (Gibco, Catalog No. 11360-070), 10 mmol/L HEPES (Gibco, Catalog No. 15630-80), 4.5 g/L glucose (Sigma, Catalog No. G8769), 0.05 mmol/L 2-mercaptethanol (Nacalai Tesque, Catalog No. 21418-42) and penicillin/streptomycin (1:1) (Gibco, Catalog No. 15140-122) was used. For culturing KMS-11 cell, RPMI 1640 medium containing 10% fetal bovine serum and penicillin/streptomycin (1:1) was used. Each 80 μL of the NCI-H929 cell having a concentration of 1×10^5 cells/mL (or the KMS-11 cell having a concentration of 7.5×10^4 cells/mL) was inoculated to wells of a TC MICROWELL 96U plate (Nalge Nunc International, Catalog No. 163320) and was cultured in a 5% carbon dioxide gas incubator at 37° C. for 24 hours. Each 20 μL of a solution of the test compound in dimethyl sulfoxide (DMSO) which was prepared to make the final concentration to 1 μmol/L or 10 μmol/L, was added to each well. Each 20 μL of DMSO was added to the control well and the blank well to a final concentration of 0.1%. After adding the test compound, the cells were incubated in a 5% carbon dioxide gas incubator at 37° C. for 72 hours except for the blank well. After adding 20 μL of WST-1 reagent {4-[3-(4-iodophenyl)-2-(4-nitrophenyl)-2H-5-tetrazolio]-1,3-benzene disulfonate sodium salt} (Roche Diagnostics K.K., Catalog No. 1644807), which was diluted to 50% by RPMI medium to each well, the cells were further incubated at 37° C. for 2 hours. Then, the absorbances at 450 nm (reference wavelength: 690 nm) were measured with a microplate spectrophotometer SPECTRA max 340PC (Molecular Devices Corporation). The relative growth (%) of a well to which the test compound had been added and cultured for 72 hours was determined while setting the absorbance of a well to which not the test compound but DMSO alone had been added and cultured for 72 hours (control) as 100% and that of a well where the drugs are added (blank) as 0%. The cytostatic rate (%) of the test compound was determined by subtracting the calculated relative growth from 100.

NCI-H929 = test: Cytostatic activity on human multiple myeloma cell line NCI-H929 (WST-1); type: cell-based; settings: 10 μmol/L, 72 hours; for inhibition at 10 µM: Homo sapiens, NCI-H929, 72 h, read-out: cytostatic rate (%) H929 (10 μmol/L)
Method: as §1, §2

IGF-1R = biological target: T1, IGF-1R (Homo sapiens, UniProt P08069); test: IGF-1R inhibitory activity (kinase reaction, time-resolved fluoroimmunoassay); type: biochemical; settings: IGF-1R active recombinant enzyme, test compound 10 μmol/L
T1 construct: purchased Upstate Co. 14-465
Method in brief: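 Compounds were tested at a single 10 μmol/L concentration. Each was incubated with recombinant IGF-1R (200 μg/L), 10 mmol/L ATP, MgCl2/MnCl2 and Na3VO4 (pH 7.5) on immobilized poly(Glu-Tyr) peptide for 30 min at 24° C. Eu-anti-phosphotyrosine time-resolved fluorescence (340/615 nm) gave relative activity against no-compound and no-enzyme wells, reported as % inhibition.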

T1 sequence (P08069 959-1367 limits assumed): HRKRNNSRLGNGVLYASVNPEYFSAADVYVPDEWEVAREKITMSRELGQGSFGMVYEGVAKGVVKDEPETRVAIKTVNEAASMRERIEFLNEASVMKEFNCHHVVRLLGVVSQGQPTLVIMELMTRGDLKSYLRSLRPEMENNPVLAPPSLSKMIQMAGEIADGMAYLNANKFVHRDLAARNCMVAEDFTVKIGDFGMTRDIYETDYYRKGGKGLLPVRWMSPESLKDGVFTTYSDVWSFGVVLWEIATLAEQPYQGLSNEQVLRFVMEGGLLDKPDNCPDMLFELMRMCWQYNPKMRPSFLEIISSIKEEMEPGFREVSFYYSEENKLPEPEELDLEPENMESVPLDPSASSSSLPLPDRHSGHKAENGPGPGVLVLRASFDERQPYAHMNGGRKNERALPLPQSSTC

SMILES	inhibition at 10 µM (KMS-11)	inhibition at 10 µM (NCI-H929)	inhibition at 10 µM (IGF-1R)	cytostatic rate (%) KMS-11 (10 μmol/L) (KMS-11)	cytostatic rate (%) H929 (10 μmol/L) (NCI-H929)	inhibitory activity (%) at 10 μmol/L (IGF-1R)
O=C(Nc1ccccc1/C=C/c1n[nH]c2ccccc12)c1ccccn1 [Compound 12, (E)-N-{2-[2-(1H-indazol-3-yl)vinyl]phenyl}pyridine-2-carboxamide]	120%	118%	96.1%	–	–	–
C(=C\c1n[nH]c2ccccc12)/c1ccccc1OCc1ccccc1 [Compound 13, (E)-3-[2-(2-benzyloxyphenyl)vinyl]-1H-indazole]	105%	116%	96.9%	–	–	–
O=C(Nc1ccccc1/C=C/c1n[nH]c2ccccc12)c1cccs1 [Compound 14, (E)-N-{2-[2-(1H-indazol-3-yl)vinyl]phenyl}thiophene-2-carboxamide]	110%	114%	96.5%	–	–	–
O=C(Cc1ccccc1)Nc1ccccc1/C=C/c1n[nH]c2ccccc12 [Compound 15, (E)-N-{2-[2-(1H-indazol-3-yl)vinyl]phenyl}-2-phenylacetamide]	95.1%	93.6%	55.4%	–	–	–
O=S(=O)(Nc1ccccc1/C=C/c1n[nH]c2ccccc12)c1ccccc1 [Compound 16, (E)-N-{2-[2-(1H-indazol-3-yl)vinyl]phenyl}benzenesulfonamide]	85.2%	64.7%	59.2%	–	–	–
CN(C)c1ccc(C(=O)Nc2ccccc2/C=C/c2n[nH]c3ccccc23)cc1 [Compound 17, (E)-4-dimethylamino-N-{2-[2-(1H-indazol-3-yl)vinyl]phenyl}benzamide]	127%	115%	98.3%	–	–	–
CC(C)C(=O)Nc1ccccc1/C=C/c1n[nH]c2ccccc12 [Compound 18, (E)-N-{2-[2-(1H-indazol-3-yl)vinyl]phenyl}isobutylamide]	–	–	–	124.1%	112.7%	96.4%
COc1cccc(C(=O)Nc2ccccc2/C=C/c2n[nH]c3ccccc23)c1 [Compound 19, (E)-N-{2-[2-(1H-indazol-3-yl)vinyl]phenyl}-3-methoxybenzamide]	110%	132%	95.3%	–	–	–
COc1ccccc1C(=O)Nc1ccccc1/C=C/c1n[nH]c2ccccc12 [Compound 20, (E)-N-{2-[2-(1H-indazol-3-yl)vinyl]phenyl}-2-methoxybenzamide]	107%	130%	97.3%	–	–	–
CCNC(=O)Nc1ccccc1/C=C/c1n[nH]c2ccccc12 [Compound 21, (E)-1-ethyl-3-{2-[2-(1H-indazol-3-yl)vinyl]phenyl}urea]	94%	114%	88.2%	–	–	–
O=C(Nc1ccccc1/C=C/c1n[nH]c2ccccc12)C1CCCCC1 [Compound 23, (E)-N-{2-[2-(1H-indazol-3-yl)vinyl]phenyl}cyclohexanecarboxamide]	109%	130%	95.4%	–	–	–
O=C(Nc1ccccc1/C=C/c1n[nH]c2ccccc12)C1CCCC1 [Compound 24, (E)-N-{2-[2-(1H-indazol-3-yl)vinyl]phenyl}cyclopentanecarboxamide]	110%	116%	97.4%	–	–	–
O=C(Cc1cccs1)Nc1ccccc1/C=C/c1n[nH]c2ccccc12 [Compound 25, (E)-N-{2-[2-(1H-indazol-3-yl)vinyl]phenyl}-2-(thiophen-2-yl)acetamide]	106%	116%	86%	–	–	–
CN(C)c1cccc(C(=O)Nc2ccccc2/C=C/c2n[nH]c3ccccc23)c1 [Compound 27, (E)-3-dimethylamino-N-{2-[2-(1H-indazol-3-yl)vinyl]phenyl}benzamide]	114%	119%	99.3%	–	–	–
O=C(Nc1ccccc1/C=C/c1n[nH]c2ccccc12)c1cnccn1 [Compound 28, (E)-N-{2-[2-(1H-indazol-3-yl)vinyl]phenyl}pyrazine-2-carboxamide]	109%	116%	95.2%	–	–	–
Cc1ccccc1C(=O)Nc1ccccc1/C=C/c1n[nH]c2ccccc12 [Compound 30, (E)-N-{2-[2-(1H-indazol-3-yl)vinyl]phenyl}-2-methylbenzamide]	115%	115%	97.6%	–	–	–
O=C(Nc1ccccc1/C=C/c1n[nH]c2ccccc12)c1ccsc1 [Compound 31, (E)-N-{2-[2-(1H-indazol-3-yl)vinyl]phenyl}thiophene-3-carboxamide]	117%	114%	99.7%	–	–	–
O=C(Nc1ccccc1/C=C/c1n[nH]c2ccccc12)C1CCCO1 (stereo not drawn) [Compound 32, (E)-N-{2-[2-(1H-indazol-3-yl)vinyl]phenyl}tetrahydrofuran-2-carboxamide]	126%	113%	98.6%	–	–	–
O=C(Nc1ccccc1/C=C/c1n[nH]c2ccccc12)C1CC1 [Compound 33, (E)-N-{2-[2-(1H-indazol-3-yl)vinyl]phenyl}cyclopropanecarboxamide]	115%	108%	92.4%	–	–	–
O=C(Nc1ccccc1/C=C/c1n[nH]c2ccccc12)c1ccc(Br)s1 [Compound 34, (E)-5-bromo-N-{2-[2-(1H-indazol-3-yl)vinyl]phenyl}thiophene-2-carboxamide]	116%	113%	99.2%	–	–	–
O=C(Nc1ccccc1/C=C/c1n[nH]c2ccccc12)N1CCOCC1 [Compound 35, (E)-N-{2-[2-(1H-indazol-3-yl)vinyl]phenyl}morpholine-4-carboxamide]	125%	110%	98.4%	–	–	–
O=C(Nc1ccccc1/C=C/c1n[nH]c2ccccc12)c1cscn1 [Compound 36, (E)-N-{2-[2-(1H-indazol-3-yl)vinyl]phenyl}thiazole-4-carboxamide]	116%	112%	98.6%	–	–	–
O=C(Nc1ccccc1/C=C/c1n[nH]c2ccccc12)c1ccno1 [Compound 37, (E)-N-{2-[2-(1H-indazol-3-yl)vinyl]phenyl}isoxazole-5-carboxamide]	112%	112%	99.1%	–	–	–
O=C(CCc1cccs1)Nc1ccccc1/C=C/c1n[nH]c2ccccc12 [Compound 39, (E)-N-{2-[2-(1H-indazol-3-yl)vinyl]phenyl}-3-(thiophen-2-yl)propionamide]	91%	68.8%	59.1%	–	–	–
Cc1ccc(C(=O)Nc2ccccc2/C=C/c2n[nH]c3ccccc23)s1 [Compound 40, (E)-N-{2-[2-(1H-indazol-3-yl)vinyl]phenyl}-5-methylthiophene-2-carboxamide]	108%	125%	98.8%	–	–	–
O=C(Nc1ccccc1/C=C/c1n[nH]c2ccccc12)c1ccc[nH]1 [Compound 42, (E)-N-{2-[2-(1H-indazol-3-yl)vinyl]phenyl}-1H-pyrrole-2-carboxamide]	109%	126%	98.9%	–	–	–
CC(=O)c1ccc(C(=O)Nc2ccccc2/C=C/c2n[nH]c3ccccc23)s1 [Compound 43, (E)-5-acetyl-N-{2-[2-(1H-indazol-3-yl)vinyl]phenyl}thiophene-2-carboxamide]	112%	113%	96.3%	–	–	–
O=C(Nc1ccccc1/C=C/c1n[nH]c2ccccc12)C1CCC1 [Compound 44, (E)-N-{2-[2-(1H-indazol-3-yl)vinyl]phenyl}cyclobutanecarboxamide]	113%	115%	98%	–	–	–
